{"source": "patent US9447083B2", "about": "“N-acylhydrazone derivatives for selective T cell inhibitor and anti-lymphoid malignancy drug” (CHONG KUN DANG PHARMACEUTICAL CORP., priority 2012, dated 2016)", "key": {"KMS12BM": {"system": "KMS12BM", "assay": "Apoptosis of lymphoid malignancy cell lines: KMS12BM", "assay_type": "cell-based", "conditions": "Homo sapiens, KMS-12-BM, Multiple myeloma, 24 hours, read-out: Administration Dose (mean ± SD, μmol/L) Lethal Dose 50 (Apoptosis)", "protocol": "(§1) Each of the acute T cell leukemia cell lines Jurkat, Molt4 and CCRF-CEM, the acute B cell leukemia cell line Raji and the […] cell lines KMS11, KMS12BM, KMS26, KMS28BM, and IM9 was re-suspended in 10% FBS-containing RPMI medium at a concentration of 1.5×10^5 cells/mL, and 200 μL of each of the cell suspensions was cultured in a flat bottom 96-well plate (Costar). The acute NK cell lymphoma cell line NK-92MI was re-suspended in α-MEM medium (supplemented with 20% FBS, 1×MEM vitamine solution, 50 μM 2-mercaptoethanol and 1× penicillin/streptomycin) at a concentration of 1.5×10^5 cells/mL, and 200 μL of the cell suspension was cultured in a flat bottom 96-well plate. The cells in each well was treated with 10 μL of each of 0.1, 0.25, 0.5, 0.75 and 1 μM of the compound diluted with RPMI medium, followed by that the cells were incubated in a 5% CO2 incubator at 37° C. for 24 hours. […]\n(§2) The cells were collected, and then the apoptosis thereof was analyzed by a flow cytometer after staining with Annexin V-7-AAD. The incubated cells were collected, placed in a 5-mL FACS tube (BD Falcon) and washed with 1 mL of fluorescence activated cell sorting (FACS) buffer (1%. FBS and 0.1% sodium azaide in PBS). […] The stained cells were suspended in 0.3 mL of FACS buffer, and then analyzed by a flow cytometer. […]"}, "[1]": {"system": "Experimental Autoimmune Encephalomyelitis (EAE)", "assay": "Experimental Autoimmune Encephalomyelitis (EAE) model of multiple sclerosis", "assay_type": "in vivo, mouse", "protocol": "At the first day of induction, myelin oligodendrocyte glycoprotein35-55 (MOG35-55, Peptron) (200 ug), mycobacterium tuberculosis (Difco, Cat No. 231141) (500 μg) and complete Freund's adjuvant (Sigma Aldrich, Cat No. F5506) were mixed with each other and immersed for 5 minutes. 0.1 mL of the immersed peptide was injected subcutaneously into both the flanks of each of C57BL/6 mice (9 week old, female, 18±2 g), followed by that […] pertussis toxin (Sigma Aldrich, Cat No. P2980) (200 ng) was injected by intravenously. At 2 days, the same amount of pertussis toxin was administered intravenously. Whether the immersion leaked from the injected portion of the mice was checked, and whether EAE was induced was also examined by visual observation from 7 days.\nCompound 229 and Fingolimod that is currently clinically used for the treatment of multiple sclerosis were completely dissolved in a Cremophor EL-ethanol mixture (1:1, v/v) in an amount corresponding to 7.5% (v/v) of the administration volume, and the compound solution was diluted in PBS. The two groups of the mice were administered orally with 200 μL of the diluted solution of compound 229 at each doses of 25 and 50 mg/kg separately, and the third group of the mice was administered orally with 200 μL of the diluted solution of fingolimode at a dose of 1 mg/kg on a daily basis from 17 days to 37 days (for total 21 times) after starting of the experiment. In a vehicle control group, 200 μL of a Cremophor EL-ethanol-PBS mixture (3.75:3.75:92.5, v/v/v) was administered to each mouse in the same manner as the treated group. The index of EAE was recorded daily based on visual observation using a severity index system (6-point (0 to 5) scale) from 7 days of the experiment. The symptoms of multiple sclerosis were evaluated based on the following criteria:\n2: limp tail and hind limb weakness;\n4: hind limb paralysis and forelimb weakness; and […]"}, "Molt4": {"system": "Molt4", "assay": "Apoptosis of lymphoid malignancy cell lines: Molt4", "assay_type": "cell-based", "conditions": "Homo sapiens, MOLT-4, 24 h, read-out: Administration Dose (mean ± SD, μmol/L) Lethal Dose 50 (Apoptosis)", "protocol": "(§3) Each of the acute T cell leukemia cell lines Jurkat, Molt4 and CCRF-CEM, the acute B cell leukemia cell line Raji and the […] cell lines KMS11, KMS12BM, KMS26, KMS28BM, and IM9 was re-suspended in 10% FBS-containing RPMI medium at a concentration of 1.5×10^5 cells/mL, and 200 μL of each of the cell suspensions was cultured in a flat bottom 96-well plate (Costar). The acute NK cell lymphoma cell line NK-92MI was re-suspended in α-MEM medium (supplemented with 20% FBS, 1×MEM vitamine solution, 50 μM 2-mercaptoethanol and 1× penicillin/streptomycin) at a concentration of 1.5×10^5 cells/mL, and 200 μL of the cell suspension was cultured in a flat bottom 96-well plate. The cells in each well was treated with 10 μL of each of 0.1, 0.25, 0.5, 0.75 and 1 μM of the compound diluted with RPMI medium, followed by that the cells were incubated in a 5% CO2 incubator at 37° C. for 24 hours. In a vehicle control group, cells were treated with 10 μL of medium containing 0.05% dimetylsulfoxide (DMSO, Sigma).\n(§4) The cells were collected, and then the apoptosis thereof was analyzed by a flow cytometer after staining with Annexin V-7-AAD. The incubated cells were collected, placed in a 5-mL FACS tube (BD Falcon) and washed with 1 mL of fluorescence activated cell sorting (FACS) buffer (1%. FBS and 0.1% sodium azaide in PBS). The cells were re-suspended in 0.1 mL of FACS buffer, followed by that the cells were treated and stained with phycoerythrin-Annexin V at room temperature for 10 minutes. After 10 minutes of staining, the cells were treated and stained with 7-AAD at room temperature for 5 minutes. The stained cells were suspended in 0.3 mL of FACS buffer, and then analyzed by a flow cytometer. […] Thus, compounds 065, 108, 229 and 457 of the present invention can be used as a novel anti-lymphoid malignancy drug."}, "KMS26": {"system": "KMS26", "assay": "Apoptosis of lymphoid malignancy cell lines: KMS26", "assay_type": "cell-based", "conditions": "KMS-26; KMS26, Multiple myeloma, 24 hours; read-out: Administration Dose (mean ± SD, μmol/L) Lethal Dose 50 (Apoptosis)", "protocol": "as §1, §2"}, "KMS28BM": {"system": "KMS28BM", "assay": "Apoptosis of lymphoid malignancy cell lines: KMS28BM", "assay_type": "cell-based", "conditions": "KMS-28BM, Multiple myeloma, 24 hours, read-out: Administration Dose (mean ± SD, μmol/L) Lethal Dose 50 (Apoptosis)", "protocol": "as §1, §2"}, "Jurkat": {"system": "Jurkat", "assay": "Apoptosis of lymphoid malignancy cell lines (Annexin V / 7-AAD): Jurkat", "assay_type": "cell-based", "conditions": "Homo sapiens, Acute T cell leukemia, 24 hours, read-out: Administration Dose (mean ± SD, μmol/L) Lethal Dose 50 (Apoptosis)", "protocol": "as §3, §4"}, "[2]": {"assay": "Toxicity test, single oral dose in ICR male mice", "conditions": "mouse, in vivo, read-out: lethal dose 50 (LD50)", "protocol": "To ICR male mice, a suspension of Compound 229 in 0.5% methylcellulose solution was administered orally once by each doses of 10 mg/kg, 50 mg/kg and 100 mg/kg, and the survival rate and body weight of the mice were investigated for 7 days. After such administration, mouse death or not, clinical condition and body weight change were monitored. Hematology test and biochemical examination of blood were carried out."}}, "data": [{"smiles": "Cc1cc(C)c(OCC(=O)N/N=C/c2ccc3cc[nH]c3c2)c(C2CCOC2)c1", "note": "(stereo not shown) [Compound 229, (E)-N′-((1H-indol-6-yl)methylene)-2-(2,4-dimethyl-6-(tetrahydrofuran-3-yl)phenoxy)acetohydrazide]", "values": [{"measurement": "EC50", "setting": "KMS12BM", "value": "0.94 ± 0.09", "unit": "µmol/L"}, {"measurement": "severity index (EAE, 0 to 5 scale)", "setting": "[1]; 25 mg/kg orally daily from 17 to 37 days, at 17 days (start of administration)", "value": "3±1"}, {"measurement": "severity index (EAE, 0 to 5 scale)", "setting": "[1]; 25 mg/kg orally daily from 17 to 37 days, at 39 days, vehicle 2.5±0.75", "value": "1.25±0.75"}, {"measurement": "severity index (EAE, 0 to 5 scale)", "setting": "[1]; 25 mg/kg orally daily from 17 to 37 days, at 55 days", "value": "1.17±0.75"}, {"measurement": "severity index (EAE, 0 to 5 scale)", "setting": "[1]; 25 mg/kg orally daily from 17 to 37 days, at 101 days, vehicle 2.33±0.25", "value": "1.83±0.5"}, {"measurement": "severity index (EAE, 0 to 5 scale)", "setting": "[1]; 50 mg/kg orally daily from 17 to 37 days, at 17 days (start of administration)", "value": "3±0.75"}, {"measurement": "severity index (EAE, 0 to 5 scale)", "setting": "[1]; 50 mg/kg orally daily from 17 to 37 days, at 39 days, vehicle 2.5±0.75", "value": "0.9±0.25"}, {"measurement": "severity index (EAE, 0 to 5 scale)", "setting": "[1]; 50 mg/kg orally daily from 17 to 37 days, at 101 days, vehicle 2.33±0.25", "value": "0.63±0.25"}, {"measurement": "EC50", "setting": "Molt4", "value": "1.3 ± 0.05", "unit": "µmol/L"}, {"measurement": "EC50", "setting": "KMS26", "value": "1.31 ± 0.35", "unit": "µmol/L"}, {"measurement": "EC50", "setting": "KMS28BM", "value": "0.49 ± 0.08", "unit": "µmol/L"}, {"measurement": "EC50", "setting": "Jurkat", "value": 0.62, "unit": "µmol/L"}, {"measurement": "LD50 at 7 days", "setting": "[2]", "value": 100, "unit": "mg/kg"}]}]}
